We go through 5 compounds from PMC6000670, “Dihydropyridines Allosterically Modulate Hsp90 Providing a Novel Mechanism for Heat Shock Protein Co-induction and Neuroprotection” (Frontiers in Molecular Biosciences, 2018).

Where two headings read alike, the source gives them in different places.

For assay [1], the target named is Hsp90-AMPPNP-Sba1 complex (Saccharomyces cerevisiae, UniProt P02829). The assay is described as follows: ITC binding to Hsp90-AMPPNP-Sba1 complex.
In assay [2] the target is T1, yeast Hsp90 (Saccharomyces cerevisiae, UniProt P02829). The assay is described as follows: Citrate synthase aggregation assay.
For another assay, the target named is yeast Hsp90^273−709 (Saccharomyces cerevisiae, UniProt P02829). The assay is described as follows: ITC binding to yeast Hsp90 273-709 (middle and C-terminal domain). The conditions noted are these: for ΔH / ΔS: ITC, Yeast 273–709.
A further assay has as its target Hsp90^1−560 (Saccharomyces cerevisiae, UniProt P02829). The assay is described as follows: ITC binding to yeast Hsp90 1-560 (N and middle domain). The conditions noted are these: Hsp90 1−560, N- and middle-domain of yeast Hsp90.
Assay [3] deals with yeast Hsp90–AMPPNP complex (Saccharomyces cerevisiae, UniProt P02829). Nature of the assay: ITC binding to yeast Hsp90-AMPPNP complex.
The next assay deals with Hsp90. The assay is described as follows: Refolding of denatured luciferase in rabbit reticulocyte lysate. Format: biochemical.
In assay [4] the test system is SH-SY5Y human neuroblastoma cell line. Also noted: method as in Kasza et al., 2016. The conditions noted are these: ref Kasza et al., 2016; cited from earlier work.
The target in assay [5] is human Hsp90α N-terminal domain (Hsp90^9−236) (Homo sapiens, UniProt P07900). The assay is described as follows: ITC binding to human Hsp90α N-terminal domain. The conditions noted are these: isolated N-terminal domain of human Hsp90α.
Another assay has as its target human Hsp90β (Homo sapiens, UniProt P08238). The assay is described as follows: ITC binding to human full-length Hsp90β.
Another assay deals with yeast Hsp90-ADP complex (Saccharomyces cerevisiae, UniProt P02829). Nature of the assay: ITC binding to yeast Hsp90-ADP complex.
The target in assay [6] is T1, yeast Hsp90. The assay is described as follows: ITC binding to yeast full-length Hsp90.
For a further assay, the target named is human Hsp90α (Homo sapiens, UniProt P07900). The assay is described as follows: ITC binding to human full-length Hsp90α.
The target in another assay is yeast Hsp90^546−709 (Saccharomyces cerevisiae, UniProt P02829). The assay is described as follows: ITC binding to yeast Hsp90 546-709 (C-terminal domain).
Assay [7] addresses T2, yeast Hsp90 N-terminal domain (Hsp90^1−220) (Saccharomyces cerevisiae, UniProt P02829).
T2 construct: Hsp90^1−220 (N-terminal domain); made in house
The assay is described as follows: ITC binding to yeast Hsp90 N-terminal domain. The conditions noted are these: isolated N-terminal domain of yeast Hsp90.

The target of another assay is human Hsp72 (Homo sapiens, UniProt P0DMV8). The assay is described as follows: ITC binding to human Hsp72. The conditions noted are these: 1 mM LA1011 into 60 μM human Hsp72.
In another assay the target is yeast Hsp90-P661R (Saccharomyces cerevisiae, UniProt P02829, P661R). The assay is described as follows: ITC binding to yeast Hsp90 mutant P661R.
Assay [8] addresses T1, yeast Hsp90. The assay is described as follows: Hsp90 ATPase assay.
In assay [9] the test system is APPxPS1 transgenic mouse model of AD. Further details: method as in Kasza et al., 2016. As to conditions: ref Kasza et al., 2016, cited from earlier work.
Assay [10] deals with T1, yeast Hsp90. Also noted: pRSETA was used to express yeast full–length Hsp90; made in house; method as in Prodromou et al., 1999. As to conditions: Sti1 to yeast Hsp90 without LA1011; ref Prodromou et al., 1999; cited from earlier work.
[11] abbreviates: 2 μM yeast Hsp90, non-inhibited turnover 1.2 per min.

Sequence of yeast Hsp90^546−709 (P02829 546-709): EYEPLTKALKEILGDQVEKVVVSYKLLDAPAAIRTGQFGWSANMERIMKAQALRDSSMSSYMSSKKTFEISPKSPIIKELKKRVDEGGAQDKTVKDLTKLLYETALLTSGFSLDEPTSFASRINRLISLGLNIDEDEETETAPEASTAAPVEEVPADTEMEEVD
Sequence of yeast Hsp90^273−709 (P02829 273-709): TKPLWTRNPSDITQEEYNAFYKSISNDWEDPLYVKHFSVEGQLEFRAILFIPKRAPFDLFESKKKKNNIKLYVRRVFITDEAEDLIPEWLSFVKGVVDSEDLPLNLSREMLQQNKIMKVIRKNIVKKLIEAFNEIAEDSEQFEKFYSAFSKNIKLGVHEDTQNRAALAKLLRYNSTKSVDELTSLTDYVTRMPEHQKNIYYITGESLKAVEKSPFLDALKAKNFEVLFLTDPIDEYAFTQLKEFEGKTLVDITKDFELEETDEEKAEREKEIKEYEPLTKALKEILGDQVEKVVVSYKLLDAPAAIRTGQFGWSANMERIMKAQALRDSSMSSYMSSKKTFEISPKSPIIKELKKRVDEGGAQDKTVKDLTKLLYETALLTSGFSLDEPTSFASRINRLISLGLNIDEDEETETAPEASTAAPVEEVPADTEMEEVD
T1 sequence (P02829 whole entry, the tested form may be a part): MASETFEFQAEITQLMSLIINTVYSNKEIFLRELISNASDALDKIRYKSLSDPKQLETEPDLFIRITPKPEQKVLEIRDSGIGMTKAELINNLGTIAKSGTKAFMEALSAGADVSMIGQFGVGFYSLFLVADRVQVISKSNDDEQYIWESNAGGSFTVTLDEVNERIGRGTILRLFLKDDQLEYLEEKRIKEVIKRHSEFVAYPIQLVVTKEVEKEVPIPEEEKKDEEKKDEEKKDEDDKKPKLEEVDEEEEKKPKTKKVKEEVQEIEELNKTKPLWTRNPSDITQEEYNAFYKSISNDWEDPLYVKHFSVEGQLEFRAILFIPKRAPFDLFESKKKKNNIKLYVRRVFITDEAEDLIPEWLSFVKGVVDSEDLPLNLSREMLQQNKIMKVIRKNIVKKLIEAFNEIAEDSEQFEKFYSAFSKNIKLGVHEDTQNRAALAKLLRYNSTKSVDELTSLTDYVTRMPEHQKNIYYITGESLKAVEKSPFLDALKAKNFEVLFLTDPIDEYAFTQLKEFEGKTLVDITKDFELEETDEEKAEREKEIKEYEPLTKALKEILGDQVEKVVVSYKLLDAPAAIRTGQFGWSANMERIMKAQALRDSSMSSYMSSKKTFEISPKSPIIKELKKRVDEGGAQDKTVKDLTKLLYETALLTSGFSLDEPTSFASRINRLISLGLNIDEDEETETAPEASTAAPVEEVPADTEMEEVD
Sequence of human Hsp90β (P08238 whole entry): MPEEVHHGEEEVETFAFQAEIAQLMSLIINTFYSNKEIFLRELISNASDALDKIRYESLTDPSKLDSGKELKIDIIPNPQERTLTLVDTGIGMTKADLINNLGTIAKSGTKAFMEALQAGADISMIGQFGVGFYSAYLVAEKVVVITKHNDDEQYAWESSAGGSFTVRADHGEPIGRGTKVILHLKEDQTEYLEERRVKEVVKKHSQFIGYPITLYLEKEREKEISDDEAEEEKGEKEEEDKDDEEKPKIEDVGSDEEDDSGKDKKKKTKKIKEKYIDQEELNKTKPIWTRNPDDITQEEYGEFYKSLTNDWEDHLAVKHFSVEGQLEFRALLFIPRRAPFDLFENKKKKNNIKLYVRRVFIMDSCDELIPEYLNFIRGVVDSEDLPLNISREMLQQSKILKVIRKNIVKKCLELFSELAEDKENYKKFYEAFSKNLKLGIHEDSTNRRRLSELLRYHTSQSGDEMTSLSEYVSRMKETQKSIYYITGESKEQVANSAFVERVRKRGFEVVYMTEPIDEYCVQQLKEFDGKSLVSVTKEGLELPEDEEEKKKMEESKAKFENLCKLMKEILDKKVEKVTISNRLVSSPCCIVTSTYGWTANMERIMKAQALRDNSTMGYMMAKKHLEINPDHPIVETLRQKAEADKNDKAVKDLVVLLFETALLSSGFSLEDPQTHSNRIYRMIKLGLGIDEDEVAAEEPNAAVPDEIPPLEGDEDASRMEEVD
Sequence of yeast Hsp90–AMPPNP complex (P02829 whole entry, one chain of several): as the sequence (P02829 whole entry, the tested form may be a part) above
Sequence of Hsp90^1−560 (P02829 1-560): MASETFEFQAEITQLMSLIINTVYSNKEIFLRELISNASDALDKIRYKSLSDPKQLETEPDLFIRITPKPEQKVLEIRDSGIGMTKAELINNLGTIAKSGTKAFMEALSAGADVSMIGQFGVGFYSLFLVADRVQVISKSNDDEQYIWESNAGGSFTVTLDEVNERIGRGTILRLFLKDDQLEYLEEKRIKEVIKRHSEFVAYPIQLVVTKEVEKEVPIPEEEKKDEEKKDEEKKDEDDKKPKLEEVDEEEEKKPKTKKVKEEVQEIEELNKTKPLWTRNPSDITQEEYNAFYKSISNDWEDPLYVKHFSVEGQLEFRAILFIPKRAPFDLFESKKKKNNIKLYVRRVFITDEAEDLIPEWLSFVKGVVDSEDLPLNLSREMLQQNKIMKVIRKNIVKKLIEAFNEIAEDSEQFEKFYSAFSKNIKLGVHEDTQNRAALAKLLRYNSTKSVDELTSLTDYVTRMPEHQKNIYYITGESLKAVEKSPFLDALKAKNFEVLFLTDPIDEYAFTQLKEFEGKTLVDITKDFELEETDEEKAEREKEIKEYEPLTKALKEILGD
Sequence of yeast Hsp90-P661R (P02829 whole entry, looked up, stated change not applied): as the sequence (P02829 whole entry, the tested form may be a part) above
Sequence of Hsp90-AMPPNP-Sba1 complex (P02829 whole entry): as the sequence (P02829 whole entry, the tested form may be a part) above
Sequence of Hsp90-AMPPNP-Sba1 complex (P28707 whole entry partner): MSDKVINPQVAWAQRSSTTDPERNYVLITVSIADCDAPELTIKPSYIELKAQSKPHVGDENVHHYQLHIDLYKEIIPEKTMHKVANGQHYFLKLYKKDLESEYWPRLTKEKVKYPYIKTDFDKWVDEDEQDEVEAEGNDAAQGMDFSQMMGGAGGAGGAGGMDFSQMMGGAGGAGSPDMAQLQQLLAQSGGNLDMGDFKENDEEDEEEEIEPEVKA

With `COC(=O)C1=C(CCN(C)C)N(C)C(CCN(C)C)=C(C(=O)OC)C1c1ccc(C(F)(F)F)cc1` [LA1011], the Kd in [1] came to 23.1 ± 1.9 µM; at yeast Hsp90^273−709 it was 9.7 ± 0.7 µM; in assay [3], 66.2 ± 21.4 µM; on human Hsp90β, 9.7 ± 0.7 µM; on yeast Hsp90-ADP complex, 66.2 ± 29.7 µM; on yeast Hsp90 [6] it was 13.5 ± 0.9 µM. Moreover, the Kd came out at 3.8 ± 0.7 µM on human Hsp90α, 60.6 ± 7.9 µM at yeast Hsp90^546−709 and 80.6 ± 19 µM at yeast Hsp90-P661R. Also, the “disruption of Hsp90's ability to protect citrate synthase from aggregation” value on yeast Hsp90 [2] (0.1–0.2 mM LA1011, 600 nM Hsp90, 45°C) is listed as “around 50%”. The fractional occupancy on yeast Hsp90 [2] (calculated as [ligand]/[ligand]+Kd, Kd 13 μM, at 0.1–0.2 mM LA1011) is reported as 88–93%. For the same compound, the ΔH on yeast Hsp90^273−709 was -5.11 ± 0.187 kcal/mol; at human Hsp90β (ITC, Hsp90β), -0.6549 ± 0.0435 kcal/mol; at yeast Hsp90 [6] (ITC, Yeast Hsp90) it was -4.863 ± 0.194 kcal/mol; on human Hsp90α (ITC, Hsp90α), -0.792 ± 0.0807 kcal/mol; on yeast Hsp90^546−709 (ITC, Yeast 546–709) it was -2.603 ± 0.706 kcal/mol. Moreover, the ΔS was determined as 6.07 cal/mol/Deg on yeast Hsp90^273−709; 20.8 cal/mol/Deg on human Hsp90β (ITC, Hsp90β); 6.24 cal/mol/Deg on yeast Hsp90 [6] (ITC, Yeast Hsp90); 22.2 cal/mol/Deg at human Hsp90α (ITC, Hsp90α); 10.7 cal/mol/Deg on yeast Hsp90^546−709 (ITC, Yeast 546–709). Also, the binding result on Hsp90^1−560 is listed as “failed to bind”; in assay [5], “failed to bind”; in assay [7], “failed to bind”; at human Hsp72, “did not interact”. Also, the entries for the “LA1011 required to achieve 88% occupancy” value (in assay [3] (in the presence of ATP); at yeast Hsp90 [6] (in the absence of ATP)) were 0.5 mM and 100 µM, respectively. Besides, in the assay with Hsp90 (1 mM LA1011, rabbit reticulocyte lysate), the “inhibition of luciferase refolding” value is listed as “around 50%”. Further, the refolding of luciferase entry with Hsp90 (5 mM LA1011, rabbit reticulocyte lysate) was “completely prevented refolding of luciferase”. In addition, in assay [4], the “heat shock protein co-induction” value is “co-inducers of Hsp70 and Hsp27”. Also, the “N (stoichiometry)” value is 0.27 on human Hsp90β (ITC, human Hsp90β); 0.53 at yeast Hsp90 [6] (ITC, Yeast Hsp90); 0.35 at human Hsp90α (ITC, human Hsp90α). In addition, the “effect on ATPase activity of Hsp90” value at yeast Hsp90 [8] (setting [11]) is “activated the ATPase activity”; on yeast Hsp90 [8] (10 μM LA1011), “marginal effects”. For the same compound, the “stimulation of the ATPase” value at yeast Hsp90 [8] (240 μM LA1011) was 2 fold. The neuroprotective effect entry in assay [9] (APPxPS1 transgenic mouse model of AD) is “could protect neurons in the hippocampus, could decrease Tau-accumulation and was able to preserve dendritic spines”. In addition, in assay [9] (mouse models), the “levels that had an effect in mouse models” value was 5 to 10 µM.

At yeast Hsp90^273−709, `COC(=O)C1=C(C)N(C)C(CCN2CCOCC2)=C(C(=O)OC)C1c1ccc(C(F)(F)F)cc1` (stereo not drawn) [LA1014] returned a Kd of 20.2 ± 3 µM, a ΔH of -0.8714 ± 0.145 kcal/mol and a ΔS of 18.6 cal/mol/Deg. The “effect on ATPase activity of Hsp90” value at yeast Hsp90 [8] (setting [11]) is listed as “activated the ATPase activity”.

At yeast Hsp90^273−709, `COC(=O)C1=C(CCN(C)C)N(C)C(CCN(C)C)=C(C(=O)OC)C1c1cc(F)cc(F)c1` [LA1026] returned a Kd of 48.8 ± 4.7 µM, a ΔH of -1.233 ± 0.21 kcal/mol and a ΔS of 15.7 cal/mol/Deg. In addition, the “effect on ATPase activity of Hsp90” value at yeast Hsp90 [8] (setting [11]) is recorded as “activated the ATPase activity”.

Regarding `COC1=C2C[C@@H](C)C[C@H](OC)[C@H](O)[C@@H](C)/C=C(\C)[C@H](OC(N)=O)[C@@H](OC)/C=C\C=C(/C)C(=O)NC(=CC1=O)C2=O` [geldanamycin, reference compound], the “effect on ATPase activity of Hsp90” value at yeast Hsp90 [8] (setting [11]) is listed as “inhibition of Hsp90 ATPase activity”.

As to Sti1: yeast co-chaperone of Hsp90, the Kd with yeast Hsp90 [10] is 0.33 ± 0.03 µM.
